Test results reported in patent US6335339B1, “Triazine antiviral compounds” (Scriptgen Pharmaceuticals, Inc., priority 1998, dated 2002).
“Also recorded” adds a separate entry of the source.

Legend:
HIV derived RRE RNA = test: heterologous hybridization inhibition assay with RRE RNA; type: binding; conditions: radiolabeled RRE RNA, rRNA competitor
[1] = system: RNA target containing only the bulge region of εRNA; test: melting temperature of bulge RNA (OD 260 nm); type: binding, Hepatitis B virus; conditions: 2 μM RNA plus 10 μM compound; RNA without drug 65° C; call rule not given here.
Method: The melting temperature of the RNA was determined by monitoring the change in optical density at 260 nm with increasing temperature.
Further, a smaller RNA target containing only the bulge region of εRNA was prepared, and the melting temperature (tm) of this RNA structure was determined by monitoring the change in optical density (OD) at 260 nm while increasing the temperature. A 1 ml aliquot of reaction mixture contained 50 mM NaCl, 10 mM sodium cacodylate, pH 7.0, 10% DMSO, and 2 μM bulge RNA.

εRNA = test: RNase protection of end-labeled εRNA (B. Cereus RNase); type: binding, Hepatitis B virus; conditions: compound 0 to 200 μM, 25° C., 30 minutes
Method: RNase protection was assessed by incubating an end-labeled RNA with the amount of RNase needed to yield a ladder representing single cut events at each possible cleavage site in the RNA structure (based upon a gel electrophoresis analysis). The presence of a ligand bound to the RNA renders the binding site inaccessible to the RNases and therefore, the binding site will be shown by the disappearance or weakening of specific bands in the digestion pattern (FIGS. 258A and 258B).
Reaction mixtures (10 μl) containing 50 mM Tris-HCl, pH 7.5, 50 mM KCl, 0.5 mg/ml rRNA (as a carrier), 0.5 pmol of 3′-end ^32P-labeled εRNA, 0.05 units of B. Cereus RNase, and compound 5 at concentrations between 0 and 200 μM were incubated at 25° C. for 30 minutes. The reaction products were resolved by gel electrophoresis in polyacrylamide gels. B. Cereus nuclease is a single strand specific RNase. The results are shown in FIG. 258A, wherein the sections of the ladder of digestion products corresponding to cleavage events occurring in the bulge and loop sections of the εRNA structure. […] Conversely, the loop and other regions of the structure where not affected.

[2] = neutral red dye uptake cytotoxicity; type: cell-based; conditions: human, 2.2.15 cells (confluent cultures), 9 days treatment, read-out: 50% Cell Death CC50
Summary of the method: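 Confluent 2.2.15 cultures, same conditions as antiviral assay, treated daily for 9 days with 4 concentrations (3.3-fold dilutions), triplicate wells. 24 hours after the final dose, cells stained 30 minutes with 0.01% neutral red, dye extracted and A510 read; values as % of untreated cultures, CC50 as 50% cell death.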

| Structure (SMILES) | RRE + rRNA IC50 (μM) (HIV derived RRE RNA) | other results |
| --- | --- | --- |
| Cc1[nH]c2ccccc2c1C=NNc1nc(Nc2ccccc2)nc(Nc2ccc([N+](=O)[O-])cc2)n1 [Compound 6] | inactive | melting temperature (tm) of bulge RNA [1]: 83 °C |
| CCCCN(CCCC)c1nc(NN=Cc2ccc([N+](=O)[O-])cc2)nc(Nc2ccc([N+](=O)[O-])cc2)n1 [Compound 5] | inactive | protection of εRNA from RNase cleavage (εRNA): protects specific positions of RNA from digestion with RNases; also recorded: decrease in cleavage at specific positions of the bulge |
| CCN(CC)c1nc(NCc2ccccc2)nc(N/N=C/c2ccccc2O)n1 [Compound 155, 2-hydroxybenzaldehyde N-[4-(benzylamino)-6-(diethylamino)-1,3,5-triazin-2-yl]hydrazone] | inactive | CC50 at 9 days [2]: 59 µM |
| COc1ccc(Nc2nc(NCCc3ccccc3)nc(N(C)C)n2)cc1OC [Compound 252] | inactive |  |
| COc1ccc(Br)cc1/C=N/Nc1nc(Nc2cccc([N+](=O)[O-])c2)nc(N2CCOCC2)n1 [Compound 28] | inactive |  |
| COc1c(C=NNc2nc(N3CCCC3)nc(N3CCOCC3)n2)cccc1[N+](=O)[O-] [Compound 193] | inactive |  |
| CCN(CC)c1nc(Nc2cccc(Br)c2)nc(Nc2cc(C)ccc2C)n1 [Compound 202] | inactive |  |
| COc1ccc(Nc2nc(NN=Cc3ccc(O)cc3O)nc(N3CCOCC3)n2)cc1 [Compound 164] | inactive |  |
| Cc1ccc(Nc2nc(NN=Cc3ccc(Cl)cc3)nc(N3CCOCC3)n2)cc1Cl [Compound 196] | inactive |  |
| FC(F)(F)c1cccc(Nc2nc(NN=Cc3ccc(Cl)cc3)nc(N3CCOCC3)n2)c1 [Compound 120] |  | IC50 (HIV derived RRE RNA): 1110 µM |
| Cc1ccccc1Nc1nc(NN=Cc2ccc3c(c2)OCO3)nc(Nc2ccc([N+](=O)[O-])cc2)n1 [Compound 29] | inactive |  |
| C(=Cc1ccccc1)C=NNc1nc(Nc2ccccc2)nc(N2CCCC2)n1 [Compound 213] |  | IC50 (HIV derived RRE RNA): 519 µM |
| COc1ccccc1C=NNc1nc(NCc2ccccc2)nc(Nc2ccccc2)n1 [Compound 195] | inactive |  |
| O=C(CSc1nc(SCC(=O)Nc2ccccc2C(F)(F)F)nc(SCC(=O)Nc2ccccc2C(F)(F)F)n1)Nc1ccccc1C(F)(F)F [Compound 212] | inactive |  |
